According to patent US20080118980A1, “Estrogen Enhancing Differentiation of Human Mesenchymal Stromal Cells and Adipose-derived Stromal Cells” (The Board of Trustees of the University of Illinois,, priority 2006, published 2008):

Tested on: human bone marrow mesenchymal stem cells (MSCs)
Experiment: Proliferation of human bone marrow MSCs in basic medium with E2 or E3 (MTS, Example 3)
Type: cell-based
Experimental: This study investigates the mitogenic effects of estrogen receptor ligands on human bone marrow MSCs that is not contacted with osteogenic or adipogenic medium. Purified human bone marrow mesenchymal stem cells (MSCs) were purchased commercially. MSCs were respectively exposed to basic medium (DMEM+10% FBS+1% antibiotics), and basic medium supplement with 10^−6 and 10^−9 M 17-β estradiol (E2) and estriol (E3) for approximately one week. Then, various cells were plated into 96-well plates in 500 cells/well and continued to be exposed to the media. After 4 days, cell densities were measured by MTS methods and compared to initial densities. FIG. 8 illustrates the increase of the number of MSCs after being treated with basic medium and basic medium supplemented with E2 or E3.

C[C@]12CC[C@@H]3c4ccc(O)cc4CC[C@H]3[C@@H]1C[C@@H](O)[C@@H]2O [E3, estriol]
cell proliferation (MTS assay and cell counting) (10^−6 and 10^−9 M, about one week then 4 days in 96-well plates, FIG. 8): greatly increased | differentiation capabilities (adipogenic and osteogenic) of modulated MSCs (vs controls): maintain their differentiation capabilities
